# “Also recorded” adds a separate entry of the source. Like-named read-outs stand apart in the source and are kept apart here.
# Columns and labels:
# [1] = tested on: rat dorsal root ganglion (DRG) neurons; assay: Ouabain-induced increase in cytosolic Na+ (SBFI imaging) in DRG neurons; type: cell-based
# [2] = tested on: rat spared nerve injury (SNI) model; type: in vivo
# [3] = tested on: rat spared nerve injury (SNI) model; type: in vivo; remark: listed apart in the source
# naïve male SD rats = details: tat-CSM-1S by spinal delivery, over a 24 hour period
# [4] = SNI rats, dose not given, p<0.05 vs BL-Post SNI
compound,measurement,setting,value
NC1=N[C@H](O)[C@H]2[C@H]3O[C@]4(O)O[C@@H]([C@@H](O)[C@@]2(N1)[C@@H]4O)[C@]3(O)CO [tetrodotoxin],ouabain-induced increase in [Na+]c,[1],inhibited; also recorded: attenuate
Protox-II: a spider toxin that preferentially blocks NaV1.7 (YCQKWMWTCDSERKCCEGMVCRLWCKKKLW),ouabain-induced increase in [Na+]c,"[1]; 10 μM Protox-II, 1 mM ouabain",inhibited; also recorded: attenuate
CN1CC[C@]23c4c5ccc(O)c4O[C@H]2[C@@H](O)C=C[C@H]3[C@H]1C5 [morphine],antihyperalgesic effect in SNI (reference drugs),"[2]; rat, in vivo",Antihyperalgesic effects
same,antiallodynic effect in SNI (reference drugs),"[3]; rat, in vivo",Antiallodynic effects
NCC1(CC(=O)O)CCCCC1 [gabapentin],antihyperalgesic effect in SNI (reference drugs),[2]; [4],Antihyperalgesic effects
same,antiallodynic effect in SNI (reference drugs),[3]; [4],Antiallodynic effects
same,motor impairment / sedation on the rotarod,naïve male SD rats,decrease in the ability of naïve rats to remain on the rotating rod
same,motor impairment / sedation on the rotarod,naïve male SD rats; listed as Gabapentin,significant sedation/motor impairment

# Reference: patent US10287334B2, “Non-narcotic CRMP2 peptides targeting sodium channels for chronic pain” (priority 2014, dated 2019)
